Data as given in US20220280507A1, “USES OF 5-METHYLTETRAHYDROFOLATE AND ITS COMPOSITION” (Lianyungang Jinkang Hexin Pharmaceutical Co., Ltd., priority 2019, published 2022).

Legend:
[1] = Alcoholic fatty liver model, body weight during administration period; assay type: in vivo, SD rats; conditions: liquor model
Experimental: (§1) According to their weight, they were randomly divided into vehicle control group (purified water, ig), model control group (liquor, 10 ml·Kg−1), positive control group (bicyclol, 50 mg·Kg−1, ig), folic acid calcium salt high-dose group (4 mg·Kg−1), folic acid calcium salt medium-dose group (2 mg·Kg−1), folic acid calcium salt low-dose group (1 mg·Kg−1), in half female and half male, and 16 rats in each group. Purified water was used as a negative control, and bicyclol (place of origin: Beijing Xiehe Pharmaceutical Factory, specification: 25 mg/tablet, batch number: H20040467) was used as a positive control drug. Route of administration: all were administered by oral gavage. Dosage of administration: 1 mg·Kg−1, 2 mg·Kg−1, and 4 mg·Kg−1. Frequency of administration: once a day for 60 consecutive days.
(§2) Method of administration: administration started at prescribed doses on the day of modeling for 60 consecutive days and ended at the 60th day. At the same time, rats in each group were weighed every other week during administration period to monitor their body weight changes. On the 61st day, rats were dissected and serum was collected for determination of triglyceride (TG), total cholesterol (TC), malondialdehyde (MDA), superoxide dismutase (SOD) and liver histopathologic examination. The brain tissue of rats was taken out, and hippocampus tissue was separated on ice plate, prepared to homogenate with a mass fraction of 10% with purified water, then the homogenate was centrifuged to obtain supernatant. ELISA was used to detect the levels of inflammatory factors TNF-α and IL-1β in hippocampus tissue with continuous spectrum scanning microplate reader.

[2] = tested on: TNF-α; experiment: Alcoholic fatty liver model, TNF-α in hippocampus tissue (ELISA); assay type: in vivo, SD rats; conditions: liquor model, n=16
Experimental: as §1, §2

[3] = tested on: IL-1β; experiment: Alcoholic fatty liver model, IL-1β in hippocampus tissue (ELISA); assay type: in vivo, SD rats; conditions: liquor model, n=16
Experimental: as §1, §2

[4] = tested on: IL-6; experiment: LPS-induced inflammatory response in astrocytes, IL-6 release (ELISA); assay type: cell-based, Kunming mice; conditions: culture supernatant, LPS 1 μg·ml-1 + substance 10 μg·ml-1, 24 h, n=6
From the text: Experiment 9 Inhibition of 5-Methyltetrahydrofolate and Curcumin on LPS-Induced Inflammatory Response in Astrocytes
The cerebral cortex of Kunming mice at 1˜2 d was taken out under aseptic conditions, washed 3 times with cold PBS after removing residual meninges and blood vessels, prepared into single cell suspension by blowing, centrifuged, the supernatant was discarded, and the precipitant was resuspended in AST basic medium (high-sugar DMEM containing 10% FBS). The suspension was inoculated into a culture flask coated with poly-L-lysine (0.1 mg/ml), and cultured in a CO2 incubator. After 24 h, tissue debris and non-adherent cells were removed by replacing the medium. Afterwards, the medium was replaced every 3 days until the cells reached 80% confluence, then the flask was placed on a constant temperature rotary shaker, where the suspension was centrifuged at 180 r/min, 37° C. for 18 h to remove oligodendrocytes and microglia from the upper layer. Then trypsin digestion was used for subculture. […]
LPS (1 μg·ml-1), LPS (1 μg·ml-1)+curcumin (10 μg·ml-1), LPS (1 μg·ml-1)+5-MTHF-Ca (10 μg·ml-1); experimental group: LPS (1 μg·ml-1)+curcumin (5 μg·ml-1)+5-MTHF-Ca (5 μg·ml-1). After 24 h, the culture supernatant was collected, and the cytokines IL-6, IL-1β and TNF-α were detected by ELISA.

[5] = tested on: alcohol drinking rats; experiment: Disappearance and recovery of righting reflex of alcohol drinking rats; assay type: in vivo, SD rats; conditions: 30 min before Erguotou 9 ml·Kg−1, n=6
Experimental: Experiment 1 Effect of 5-methyltetrahydrofolate on disappearance and recovery of righting reflex of alcohol drinking rats.
30 SPF-grade SD rats were chosen in half male and half female, and divided into 5 groups with 6 rats in each group, including normal group, model group, positive drug group (Weihe Liver Protectant), 5-methyltetrahydrofolate administration group (4 mg·Kg−1 medium dose group, 8 mg·Kg−1 high dose group, respectively). After fasting for 12 h, the administration group was given Weihe Liver Protectant at 50 mg·kg−1, 5-methyltetrahydrofolate (Jinkang Hexin product) at 4 mg·Kg−1, 5-methyltetrahydrofolate (Jinkang Hexin product) at 8 mg·Kg−1, respectively. […] The intoxication in rats depends on righting reflex disappearing, that is, cover the head of the rat with gauze, and gently place the rat back down in the animal cage. […] The disappearance time and recovery time of the righting reflex in rats after drinking were recorded.

[6] = tested on: intestinal barrier function; conditions: chronic alcohol-fed rats, 4 mg·Kg−1
Experimental: 96 SPF-grade SD rats, half female and half male, were chosen with an average weight of 176-220 g at the beginning of the experiment, and randomly divided into vehicle control group (glucose, 10 g·Kg−1) and model control group (liquor, 6 g·Kg−1), 5-methyltetrahydrofolate calcium group (folic acid, 4 mg·Kg−1, glucose, 10 g·Kg−1), half female and half, 16 rats in each group. […] The day on which the dose of alcohol reached 6g·Kg−1 was defined as the first day of modeling. The intestinal permeability of rats was measured at Weeks 2 and 8, then 5 rats were sacrificed at random, blood and liver tissues were taken.
An oral sugar test was carried out to evaluate intestinal permeability. After fasting for 8 h, the rats were given 2.0 ml of sugar solution,
with lactulose (107 mg/kg), mannitol (30 mg/kg), sucralose (15 mg/kg) and sucrose (570 mg/kg). The rats were individually housed in metabolic cages, and urine was collected. The sugar concentration in the urine was determined by gas chromatography. Blood samples were used to analyze endotoxin in serum with Kinetic-QLC kit.

5-methyltetrahydrofolate calcium
Body weight ([1]; 1 mg·kg−1·d−1 ig, Week 0, n=16): 195.64 g
Body weight ([1]; 1 mg·kg−1·d−1 ig, Week 1, n=16): 215.16 g
Body weight ([1]; 1 mg·kg−1·d−1 ig, Week 2, n=16): 282.30 g
Body weight ([1]; 1 mg·kg−1·d−1 ig, Week 3, n=16): 299.34 g
Body weight ([1]; 1 mg·kg−1·d−1 ig, Week 4, n=16): 312.99 g
Body weight ([1]; 1 mg·kg−1·d−1 ig, Week 5, n=16): 317.48 g
Body weight ([1]; 1 mg·kg−1·d−1 ig, Week 6, n=16): 334.47 g
Body weight ([1]; 1 mg·kg−1·d−1 ig, Week 7, n=16): 355.89 g
Body weight ([1]; 1 mg·kg−1·d−1 ig, Week 8, n=16): 375.85 g
Body weight ([1]; 2 mg·kg−1·d−1 ig, Week 0, n=16): 190.85 g
Body weight ([1]; 2 mg·kg−1·d−1 ig, Week 1, n=16): 219.44 g
Body weight ([1]; 2 mg·kg−1·d−1 ig, Week 2, n=16): 274.69 g
Body weight ([1]; 2 mg·kg−1·d−1 ig, Week 3, n=16): 293.12 g
Body weight ([1]; 2 mg·kg−1·d−1 ig, Week 4, n=16): 321.78 g
Body weight ([1]; 2 mg·kg−1·d−1 ig, Week 5, n=16): 328.10 g
Body weight ([1]; 2 mg·kg−1·d−1 ig, Week 6, n=16): 345.05 g
Body weight ([1]; 2 mg·kg−1·d−1 ig, Week 7, n=16): 352.90 g
Body weight ([1]; 2 mg·kg−1·d−1 ig, Week 8, n=16): 383.69 g
Body weight ([1]; 4 mg·kg−1·d−1 ig, Week 0, n=16): 196.33 g
Body weight ([1]; 4 mg·kg−1·d−1 ig, Week 1, n=16): 218.24 g
Body weight ([1]; 4 mg·kg−1·d−1 ig, Week 2, n=16): 285.54 g
Body weight ([1]; 4 mg·kg−1·d−1 ig, Week 3, n=16): 296.05 g
Body weight ([1]; 4 mg·kg−1·d−1 ig, Week 4, n=16): 307.43 g
Body weight ([1]; 4 mg·kg−1·d−1 ig, Week 5, n=16): 321.49 g
Body weight ([1]; 4 mg·kg−1·d−1 ig, Week 6, n=16): 349.47 g
Body weight ([1]; 4 mg·kg−1·d−1 ig, Week 7, n=16): 372.49 g
Body weight ([1]; 4 mg·kg−1·d−1 ig, Week 8, n=16): 392.02 g
TNF-α in hippocampus tissue ([2]; 1 mg·kg−1·d−1 ig 60 d): 250.39 ± 32.40 μg · g^−1 prot
TNF-α in hippocampus tissue ([2]; 2 mg·kg−1·d−1 ig 60 d): 241.32 ± 29.32 μg · g^−1 prot
TNF-α in hippocampus tissue ([2]; 4 mg·kg−1·d−1 ig 60 d): 220.43 ± 24.34 μg · g^−1 prot
IL-1β in hippocampus tissue ([3]; 1 mg·kg−1·d−1 ig 60 d): 63.05 ± 5.31 μg · g^−1 prot
IL-1β in hippocampus tissue ([3]; 2 mg·kg−1·d−1 ig 60 d): 63.24 ± 13.44 μg · g^−1 prot
IL-1β in hippocampus tissue ([3]; 4 mg·kg−1·d−1 ig 60 d): 55.21 ± 3.59 μg · g^−1 prot
IL-6 [4]: 993.24 ± 52.05 pg/mL

CN1c2c([nH]c(N)nc2=O)NCC1CNc1ccc(C(=O)N[C@@H](CCC(=O)O)C(=O)O)cc1 (stereo partly drawn) [5-methyltetrahydrofolate, N-[4-[[(2-amino-1,4,5,6,7,8-hexahydro-4-oxo-5-methyl-(6S), -(6R), and (6R,S)-pteridyl)methyl)amino)toluoyl-glutamic acid]
Disappearance time (righting reflex) ([5]; 4 mg·Kg−1 (medium)): 30.1 ± 14.4 min
Recovery time (righting reflex) ([5]; 4 mg·Kg−1 (medium)): 78.5 ± 14.5 min
Disappearance time (righting reflex) ([5]; 8 mg·Kg−1 (high)): 42.3 ± 15.6 min
Recovery time (righting reflex) ([5]; 8 mg·Kg−1 (high)): 64.1 ± 14.5 min
Intestinal barrier function [6]: can improve intestinal barrier function in the presence of alcohol
Serum endotoxin level [6]: reduce serum endotoxin level
